How the values were obtained:
[1] = tested on: bladder specimen of high-week-old male rats; assay: Test Example 3: isometric contraction test of bladder specimen from high-week-old male rats after oral dosing; type: in vivo; settings: 22-week-old male rats, oral once a day 2 weeks, 10 mg/kg, compared with Group C (dutasteride 0.3 mg/kg)
Description: High-week-old male rats (22-week-old; Charles River Laboratories Japan, Inc.) were examined and evaluated for the relationship between the test substances and the bladder and urethra contraction reaction. Since the rats are high-week-old, the rats are a model in which the prostate is predicted to be enlarged.
A test substance was orally administered to the high-week-old male rats repeatedly at a frequency of once a day over two (2) weeks, and then, from each rat, a bladder specimen was extracted. The bladder specimen was suspended at a resting tension of about 9.8 mN in a constant-temperature Magnus tube (37° C.) filled with a physiological salt solution aerated with 95% 02-5% CO2 gas and was subjected to an isometric contraction test by applying a square-wave electrical field stimulation (EFS, Amplitude; 0.3 ms, Frequency; 1, 2, 5, 10, 20 Hz, Duration; 5 s); or Carbachol (CCH, 100 nmol/L to 100 μmol/L) and KCl (40, 80 mmol/L).
Solvent group (control group): 0.5 v/v % Polysorbate 80 solution, 10 mL/kg (n=6) • Group A: Compound A, 10 mg/kg (n=6) • Group C: Compound C (dutasteride), 0.3 mg/kg (n=6)

[2] = tested on: lower urinary tract obstruction model of rats (female); assay: Test Example 1: urination function in lower urinary tract obstruction model of female rats; type: in vivo; settings: oral once a day 2 weeks, Compound A 10 mg/kg
Description: A lower urinary tract obstruction model of rats was used as a test system. A test substance was orally administered to the lower urinary tract obstruction model repeatedly over two (2) weeks to examine the action on the urination function in the lower urinary tract obstruction model.
More specifically, the rats (female, Crl:CD(SD), 8-week-old; Charles River Laboratories Japan, Inc.) were operated to form lower urinary tract obstruction and repeatedly received oral administration of the test substance at a frequency of once a day over two (2) weeks. After the completion of the administration, each rat was subjected to bladder catheterization under anesthesia, cystometry under no anesthesia, then cystometry under urethane anesthesia, and euthanasia under deep anesthesia, and the tissues (bladder, kidney) of the rat were extracted or surgically removed. As a normal group, the rats without operation for forming lower urinary tract obstruction were used.
The test system, the test substances, and the dosage are as follows. • Normal group: 0.5 v/v % Polysorbate 80 solution, 10 mL/kg (n=6) • Solvent group (control group): 0.5 v/v % Polysorbate 80 solution, 10 mL/kg (n=15) • Group A: Compound A, 10 mg/kg (n=15) • Group B3: Compound B, 3 mg/kg (n=7) • Group B10: Compound B, 10 mg/kg (n=7)
After urination, the residual urine was aspirated from the outlet end of the catheter placed in the bladder to measure the volume (mL) of the residual urine.
After urination, the weight of the voided urine was measured to determine the voided volume (g=mL), and then the urination efficiency was calculated by the following equation: Urination efficiency (%)=[(Voided volume (mL))/(Voided volume (mL)+Residual urine volume (mL))]×100
Bladder capacity (mL)=Voided volume (mL)+Residual urine volume (mL)
Moreover, the wet weight of the extracted bladder and that of the extracted kidney were measured.

[3] = female rats, lower urinary tract obstruction, vs control group

`CC(=O)O[C@]1(C(C)=O)C[C@@H](O)[C@H]2[C@@H]3C=C(Cl)C4=CC(=O)OC[C@]4(C)[C@H]3CC[C@@]21C` [Compound A, 17α-acetoxy-6-chloro-15β-hydroxy-2-oxa-4,6-pregnadiene-3,20-dione] was tested, and the “bladder contraction tension caused by square-wave electrical field stimulation or Carbachol and KCl” value [1] was “significantly strong or has a strong directionality”, the survival rate ([2]; female lower urinary tract obstruction rats) was “no decrease” and the “wet weights of the bladder and the kidney” value ([2]; female rats, lower urinary tract obstruction) was “in the direction of significantly inhibiting the increase”. The residual urine volume ([2]; female rats, lower urinary tract obstruction, vs control (solvent) group) was “significantly decreased”, the bladder capacity [2, 3] was “significantly decreased” and the urination efficiency [2, 3] was “increased”.

Reference: patent publication US20240041899A1, “SOLID PREPARATION” (ASKA Pharmaceutical Co., Ltd., priority 2020, published 2024)
